Test results: article PMC7413254 (Nature Communications, 2020)
Where two headings read alike, the source gives them in different places.

Tests used:
non-expressing oocytes [1] = test: cells; assay type: cell-based, Xenopus laevis; conditions: non-expressing oocytes, total [3H]CQ transport, normalised to the oocyte type control
How it was run: (§1)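 Assay buffer ND96 (10 mM MES, 10 mM Tris-base) held at pH 5.5 to mimic vacuole lumen; uptake measured inward from this acidic medium over 1.5 h at 27.5 °C.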

PfCRT^3D7 [2] = target: T1, PfCRT^3D7 (Plasmodium falciparum, UniProt Q8IBZ9); test: cell-based; assay type: cell-based; conditions: PfCRT3D7 oocytes, total [3H]CQ transport, normalised to the oocyte type control
T1 sequence (Q8IBZ9 59-398): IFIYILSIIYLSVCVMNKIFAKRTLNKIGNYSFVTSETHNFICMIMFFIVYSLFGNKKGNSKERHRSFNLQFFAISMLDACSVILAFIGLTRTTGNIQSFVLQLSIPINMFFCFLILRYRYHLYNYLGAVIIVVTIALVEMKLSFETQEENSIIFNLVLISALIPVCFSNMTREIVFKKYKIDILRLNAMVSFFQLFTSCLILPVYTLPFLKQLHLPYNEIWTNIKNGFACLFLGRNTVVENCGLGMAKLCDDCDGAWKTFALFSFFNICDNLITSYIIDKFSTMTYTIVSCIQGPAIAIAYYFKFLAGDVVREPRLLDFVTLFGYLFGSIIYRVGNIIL
How it was run: as §1

PfCRT^Dd2 [3] = target: T2, PfCRT^Dd2 (Plasmodium falciparum, UniProt Q9N623, A220S/I356T/K76T/M74I/N326S/N75E/Q271E/R371I); test: [3H]CQ uptake into Xenopus oocytes, cis-inhibition by unlabelled solute; assay type: cell-based; conditions: PfCRTDd2 oocytes, background [3H]CQ accumulation subtracted, normalised to oocyte type control
T2 sequence (Q9N623 whole entry A220S/I356T/K76T/M74I/N326S/N75E/Q271E/R371I): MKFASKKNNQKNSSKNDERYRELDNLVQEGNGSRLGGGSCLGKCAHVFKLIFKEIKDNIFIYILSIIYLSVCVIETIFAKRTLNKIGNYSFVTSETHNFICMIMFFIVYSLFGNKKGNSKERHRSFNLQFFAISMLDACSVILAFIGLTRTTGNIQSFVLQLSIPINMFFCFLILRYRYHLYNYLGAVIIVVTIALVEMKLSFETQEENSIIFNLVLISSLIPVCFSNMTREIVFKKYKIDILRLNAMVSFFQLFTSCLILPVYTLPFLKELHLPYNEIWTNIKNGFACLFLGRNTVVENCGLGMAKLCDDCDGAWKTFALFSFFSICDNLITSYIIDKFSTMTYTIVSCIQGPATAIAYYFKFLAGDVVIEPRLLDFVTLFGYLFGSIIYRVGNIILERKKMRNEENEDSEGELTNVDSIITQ
How it was run: as §1

PfCRT^Ecu1110 [4] = target: T3, PfCRT^Ecu1110 (Plasmodium falciparum, UniProt Q9N623, A220S/I356L/K76T/N326D); test: as above; assay type: cell-based; conditions: for Uptake of [3H]CQ (% PfCRTEcu1110 control), cis-inhibition / PfCRT-mediated [3H]CQ transport, cis-inhibition (% PfCRTEcu1110 control): PfCRTEcu1110 oocytes; for Uptake of [3H]CQ (% PfCRTEcu1110 control), cis-inhibition: total [3H]CQ transport, normalised to the oocyte type control; for PfCRT-mediated [3H]CQ transport, cis-inhibition (% PfCRTEcu1110 control): background [3H]CQ accumulation subtracted, normalised to oocyte type control; for [3H]CQ transport (% PfCRTEcu1110 control), cis-inhibition, PfCRTEcu1110: PfCRT-mediated component (background subtracted), sheet title says normalised to PfCRTDd2 control, mean ± SEM, SEM
T3 sequence (Q9N623 whole entry A220S/I356L/K76T/N326D): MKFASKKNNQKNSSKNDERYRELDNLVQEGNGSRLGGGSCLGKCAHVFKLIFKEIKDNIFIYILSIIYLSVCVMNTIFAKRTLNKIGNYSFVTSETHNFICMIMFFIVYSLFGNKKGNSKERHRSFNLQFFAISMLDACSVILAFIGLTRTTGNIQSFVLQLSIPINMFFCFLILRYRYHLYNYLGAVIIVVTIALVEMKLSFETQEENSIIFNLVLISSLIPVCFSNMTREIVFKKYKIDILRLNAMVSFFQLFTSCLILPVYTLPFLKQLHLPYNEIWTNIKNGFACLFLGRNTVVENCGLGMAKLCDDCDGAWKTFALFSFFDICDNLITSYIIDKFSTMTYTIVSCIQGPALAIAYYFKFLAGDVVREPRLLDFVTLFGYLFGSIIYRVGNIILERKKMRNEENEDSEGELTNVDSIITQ
How it was run: as §1

non-expressing oocytes [5] = assay type: cell-based, Xenopus laevis; conditions: non-expressing oocytes, total [3H]CQ transport, normalised to the oocyte type control
How it was run: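 Oocytes (ten per treatment, ≥4 independent frogs/days) were preloaded by injecting VF-6 in 25 nL ND96 at pH 5.0, 5.5, 6.0 or 7.0, or Na^+-free choline buffer, then uptake run 1.5 h, 27.5 °C, ND96 pH 5.5 by default. Internal concentrations assumed ~400 nL oocyte volume.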

PfCRT^3D7 [6] = target: T1, PfCRT^3D7; test: cell-based; assay type: cell-based; conditions: PfCRT3D7 oocytes; for Uptake of [3H]CQ (% PfCRT3D7 control), trans-stimulation: total [3H]CQ transport, normalised to the oocyte type control; for PfCRT-mediated [3H]CQ transport, trans-stimulation (% PfCRT3D7 control): normalised to oocyte type control
How it was run: (§2)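 Transport measured in Xenopus oocytes expressing the transporters, 1.5 h at 27.5 °C in ND96 pH 5.5 unless noted. For trans-stimulation, VF-6 injected in 25 nL ND96 at pH 5.0–7.0 or Na^+-free (choline) buffer; intracellular levels based on ~400 nL oocyte volume. Ten oocytes per treatment, ≥4 experiments.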

PfCRT^Dd2 [7] = target: T2, PfCRT^Dd2; test: cell-based; assay type: cell-based; conditions: for Uptake of [3H]CQ (% PfCRTDd2 control), trans-stimulation / PfCRT-mediated [3H]CQ transport, trans-stimulation (% PfCRTDd2 control): PfCRTDd2 oocytes; for Uptake of [3H]CQ (% PfCRTDd2 control), trans-stimulation: total [3H]CQ transport, normalised to the oocyte type control; for PfCRT-mediated [3H]CQ transport, trans-stimulation (% PfCRTDd2 control): normalised to oocyte type control; for [3H]CQ transport (% PfCRTDd2 control), trans-stimulation, PfCRTDd2: PfCRT-mediated component (background subtracted), mean ± SEM, SEM
How it was run: as §2

PfCRT^Ecu1110 [8] = target: T3, PfCRT^Ecu1110; test: cell-based; assay type: cell-based; conditions: for Uptake of [3H]CQ (% PfCRTEcu1110 control), trans-stimulation / PfCRT-mediated [3H]CQ transport, trans-stimulation (% PfCRTEcu1110 control): PfCRTEcu1110 oocytes; for Uptake of [3H]CQ (% PfCRTEcu1110 control), trans-stimulation: total [3H]CQ transport, normalised to the oocyte type control; for PfCRT-mediated [3H]CQ transport, trans-stimulation (% PfCRTEcu1110 control): normalised to oocyte type control; for [3H]CQ transport (% PfCRTDd2 control), trans-stimulation, PfCRTEcu1110: PfCRT-mediated component (background subtracted), sheet title says normalised to PfCRTDd2 control, mean ± SEM, SEM
How it was run: as §2

PfNT1 = target: T4, PfNT1 (Plasmodium falciparum, UniProt Q8IDM6); test: cell-based; assay type: cell-based; conditions: PfNT1 oocytes, total [3H]CQ transport, normalised to the oocyte type control
T4 construct: expressed in transfected cells; host or cells: Xenopus laevis oocytes (stage V-VI), cRNA-injected
T4 sequence (Q8IDM6 whole entry): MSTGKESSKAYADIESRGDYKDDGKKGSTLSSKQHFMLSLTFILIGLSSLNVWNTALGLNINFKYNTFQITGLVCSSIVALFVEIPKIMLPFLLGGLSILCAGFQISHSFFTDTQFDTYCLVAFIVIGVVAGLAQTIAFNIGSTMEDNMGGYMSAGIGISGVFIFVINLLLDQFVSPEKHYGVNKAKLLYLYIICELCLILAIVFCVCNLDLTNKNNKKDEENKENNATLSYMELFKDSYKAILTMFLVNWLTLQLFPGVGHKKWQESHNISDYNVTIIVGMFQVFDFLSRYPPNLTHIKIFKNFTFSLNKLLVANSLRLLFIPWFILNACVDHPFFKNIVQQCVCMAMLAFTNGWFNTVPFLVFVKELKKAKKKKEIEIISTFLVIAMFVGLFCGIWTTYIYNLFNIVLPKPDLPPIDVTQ
How it was run: as §2

[9] = [test solute]i = 45 mM (30 mM for some solutes due to solubility)
[10] = [test solute]i = 5 mM (intracellular)
[11] = [test solute]i = 45 mM (intracellular; 30 mM for some solutes due to solubility)
[12] = [test solute]i = 5 mM (injected)

Substance: PEEK [PK-4]
- Uptake of [3H]CQ (% non-expressing oocyte control), cis-inhibition (non-expressing oocytes [1]; [test solute] = 0.5 mM): 100 ± 5.8 % non-expressing oocyte control
- Uptake of [3H]CQ (% non-expressing oocyte control), cis-inhibition (non-expressing oocytes [1]; [test solute] = 1 mM): 99 ± 5.3 % non-expressing oocyte control
- Uptake of [3H]CQ (% PfCRT3D7 control), cis-inhibition (PfCRT^3D7 [2]; [test solute] = 0.5 mM): 102 ± 4.4 % PfCRT3D7 control
- Uptake of [3H]CQ (% PfCRT3D7 control), cis-inhibition (PfCRT^3D7 [2]; [test solute] = 1 mM): 99 ± 4.7 % PfCRT3D7 control
- Uptake of [3H]CQ (% PfCRT3D7 control), cis-inhibition (PfCRT^3D7 [2]; [test solute] = 2 mM): 98 ± 3.7 % PfCRT3D7 control
- PfCRT-mediated [3H]CQ transport, cis-inhibition (% PfCRTDd2 control) (PfCRT^Dd2 [3]; [test solute] = 0.5 mM): 57 ± 2.0 % PfCRTDd2 control
- PfCRT-mediated [3H]CQ transport, cis-inhibition (% PfCRTDd2 control) (PfCRT^Dd2 [3]; [test solute] = 1 mM): 44 ± 2.1 % PfCRTDd2 control
- PfCRT-mediated [3H]CQ transport, cis-inhibition (% PfCRTDd2 control) (PfCRT^Dd2 [3]; [test solute] = 2 mM): 37 ± 2.2 % PfCRTDd2 control
- Uptake of [3H]CQ (% PfCRTEcu1110 control), cis-inhibition (PfCRT^Ecu1110 [4]; [test solute] = 0.5 mM): 51 ± 3.2 % PfCRTEcu1110 control
- Uptake of [3H]CQ (% PfCRTEcu1110 control), cis-inhibition (PfCRT^Ecu1110 [4]; [test solute] = 1 mM): 47 ± 3.2 % PfCRTEcu1110 control
- Uptake of [3H]CQ (% PfCRTEcu1110 control), cis-inhibition (PfCRT^Ecu1110 [4]; [test solute] = 2 mM): 33 ± 2.6 % PfCRTEcu1110 control
- PfCRT-mediated [3H]CQ transport, cis-inhibition (% PfCRTEcu1110 control) (PfCRT^Ecu1110 [4]; [test solute] = 0.5 mM): 46 ± 1.6 % PfCRTEcu1110 control
- PfCRT-mediated [3H]CQ transport, cis-inhibition (% PfCRTEcu1110 control) (PfCRT^Ecu1110 [4]; [test solute] = 1 mM): 42 ± 4.2 % PfCRTEcu1110 control
- PfCRT-mediated [3H]CQ transport, cis-inhibition (% PfCRTEcu1110 control) (PfCRT^Ecu1110 [4]; [test solute] = 2 mM): 27 ± 1.9 % PfCRTEcu1110 control
- [3H]CQ transport (% PfCRTEcu1110 control), cis-inhibition, PfCRTEcu1110 (PfCRT^Ecu1110 [4]; [test solute] = 0.5 mM): 14 ± 0.2 % PfCRTEcu1110 control
- [3H]CQ transport (% PfCRTEcu1110 control), cis-inhibition, PfCRTEcu1110 (PfCRT^Ecu1110 [4]; [test solute] = 1 mM): 13 ± 0.4 % PfCRTEcu1110 control
- [3H]CQ transport (% PfCRTEcu1110 control), cis-inhibition, PfCRTEcu1110 (PfCRT^Ecu1110 [4]; [test solute] = 2 mM): 9.0 ± 0.04 % PfCRTEcu1110 control
- Uptake of [3H]CQ (% non-expressing oocyte control), trans-stimulation (non-expressing oocytes [5]; [test solute]i = 5 mM): 100 ± 1.8 % non-expressing oocyte control
- Uptake of [3H]CQ (% non-expressing oocyte control), trans-stimulation (non-expressing oocytes [5]; [9]): 99 ± 1.5 % non-expressing oocyte control
- Uptake of [3H]CQ (% PfCRT3D7 control), trans-stimulation (PfCRT^3D7 [6]; [test solute]i = 5 mM): 99 ± 2.1 % PfCRT3D7 control
- Uptake of [3H]CQ (% PfCRT3D7 control), trans-stimulation (PfCRT^3D7 [6]; [9]): 100 ± 1.7 % PfCRT3D7 control
- PfCRT-mediated [3H]CQ transport, trans-stimulation (% PfCRT3D7 control) (PfCRT^3D7 [6]; [10]): 97 ± 3.8 % PfCRT3D7 control
- PfCRT-mediated [3H]CQ transport, trans-stimulation (% PfCRT3D7 control) (PfCRT^3D7 [6]; [11]): 98 ± 3.2 % PfCRT3D7 control
- Uptake of [3H]CQ (% PfCRTDd2 control), trans-stimulation (PfCRT^Dd2 [7]; [test solute]i = 5 mM): 97 ± 2.1 % PfCRTDd2 control
- Uptake of [3H]CQ (% PfCRTDd2 control), trans-stimulation (PfCRT^Dd2 [7]; [9]): 97 ± 3.2 % PfCRTDd2 control
- PfCRT-mediated [3H]CQ transport, trans-stimulation (% PfCRTDd2 control) (PfCRT^Dd2 [7]; [10]): 95 ± 4.4 % PfCRTDd2 control
- PfCRT-mediated [3H]CQ transport, trans-stimulation (% PfCRTDd2 control) (PfCRT^Dd2 [7]; [11]): 100 ± 4.3 % PfCRTDd2 control
- [3H]CQ transport (% PfCRTDd2 control), trans-stimulation, PfCRTDd2 (PfCRT^Dd2 [7]; [12]): 95 ± 4.4 % PfCRTDd2 control
- [3H]CQ transport (% PfCRTDd2 control), trans-stimulation, PfCRTDd2 (PfCRT^Dd2 [7]; [9]): 100 ± 4.3 % PfCRTDd2 control
- Uptake of [3H]CQ (% PfCRTEcu1110 control), trans-stimulation (PfCRT^Ecu1110 [8]; [test solute]i = 5 mM): 99 ± 1.4 % PfCRTEcu1110 control
- Uptake of [3H]CQ (% PfCRTEcu1110 control), trans-stimulation (PfCRT^Ecu1110 [8]; [9]): 97 ± 2.4 % PfCRTEcu1110 control
- PfCRT-mediated [3H]CQ transport, trans-stimulation (% PfCRTEcu1110 control) (PfCRT^Ecu1110 [8]; [10]): 97 ± 2.7 % PfCRTEcu1110 control
- PfCRT-mediated [3H]CQ transport, trans-stimulation (% PfCRTEcu1110 control) (PfCRT^Ecu1110 [8]; [11]): 95 ± 3.5 % PfCRTEcu1110 control
- [3H]CQ transport (% PfCRTDd2 control), trans-stimulation, PfCRTEcu1110 (PfCRT^Ecu1110 [8]; [12]): 29 ± 1.1 % PfCRTEcu1110 control
- [3H]CQ transport (% PfCRTDd2 control), trans-stimulation, PfCRTEcu1110 (PfCRT^Ecu1110 [8]; [9]): 29 ± 1.2 % PfCRTEcu1110 control
- Uptake of [3H]CQ (% PfNT1 control), trans-stimulation (PfNT1; [test solute]i = 5 mM): 99 ± 2.1 % PfNT1 control
- Uptake of [3H]CQ (% PfNT1 control), trans-stimulation (PfNT1; [9]): 100 ± 2.7 % PfNT1 control
